Measured values from article PMC9468151, “Identification of a binding site on soluble RANKL that can be targeted to inhibit soluble RANK-RANKL interactions and treat osteoporosis” (Nature Communications, 2022).
Values joined by “and” are separate entries in the source; they are usually repeats but may differ in a detail not shown here. Equal entries are not always repeated.

Tests used:
[1] = In vitro cytotoxicity assay (MTT); format: cell-based, mouse; settings: mouse, RAW264.7 cells; for viability at 24 h, 0.08 μM: conc. 0.08 μM; for viability at 24 h, 0.08 μM / viability at 24 h, 0.28 μM / viability at 24 h, 0.92 μM / viability at 24 h, 3.03 μM / viability at 24 h, 10 μM: read-out: cell viability relative to 0 μM (fig. S5e); for viability at 24 h, 0.28 μM: conc. 0.28 μM; for viability at 24 h, 0.92 μM: conc. 0.92 μM; for viability at 24 h, 3.03 μM: conc. 3.03 μM; for viability at 24 h, 10 μM: conc. 10 μM; for CC50 at 24 h: RAW264.7, MTT
Outline: (§1)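 Log-phase cells were seeded at 6 × 10^3 per well and incubated 24 h, with viability read by MTT. Growth inhibition (%) was calculated from OD relative to vehicle wells. CC50 came from nonlinear regression curve fitting.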

RAW264.7 cells = experiment: In vitro cytotoxicity assay (MTT); format: cell-based, mouse
Outline: as §1

sRANKL = molecular target: T1, sRANKL (Rattus norvegicus, UniProt Q9ESE2, D175N); experiment: Surface plasmon resonance (SPR) assay; format: binding; settings: immobilized sRANKL, 25 °C
T1 construct: (1) sRANKL (rat 159-318 aa); His6-sumo (N, cleaved yes); made in house; host or cells: Escherichia coli BL21 (DE3)
T1 sequence (Q9ESE2 159-318 D175N): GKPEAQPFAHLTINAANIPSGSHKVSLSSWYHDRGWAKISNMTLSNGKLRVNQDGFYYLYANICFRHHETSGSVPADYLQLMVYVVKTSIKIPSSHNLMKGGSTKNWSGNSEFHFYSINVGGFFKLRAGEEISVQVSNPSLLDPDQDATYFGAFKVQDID
Experimental: A ProteOn XPR36TM SPR instrument (BioRad Hercules, CA) was used for carrying out SPR assays. sRANKL protein in PBS buffer, pH 7.4, was diluted to 20 nM in 10 mM sodium acetate buffer, pH 5.5 and immobilized in parallelflow channels of a the EDAC/Sulfo-NHS activated surface of a GLH biosensor chip (Bio-Rad) with an amine coupling kit (Bio-Rad). The surface was blocked with 1 M ethanolamine. The final immobilization level for sRANKL was approximately 14,000 RU. A blank immobilization channel in the same GLH biosensor chip was also activated with EDAC/Sulfo-NHS and blocked with 1 M ethanolamine to use as a reference.
Biosensor binding experiments were conducted in filtered and degassed running buffer (PBS containing 0.005% Tween-20, pH 7.4) at 25 °C. Compounds was dissolved in 100% DMSO in appropriate different series concentrations of stock solutions. Before detecting, compounds were diluted in six or five concentrations with running buffer and ensured that the content of DMSO contained in each detected concentration was consistent. Compounds in different concentrations were injected simultaneously at a flow rate at […] for 180 s and 120 s for the association phase, followed by 180 s for the disassociation. Following the compound injection, the chip surface was regenerated with 40 s pulses of 0.85% H3PO4 and running buffer.
ProtedOn Manager 2.0. was used for data analysis. Each set of sensorgrams was globally analyzed using the 1:1 Langmuir binding model to obtain the kinetic rate constants (Kon and Koff). Global kinetic rate constants (ka and kd) were derived for each reaction, and the equilibrium dissociation constant, KD, was calculated using the equation KD = kd/ka.

[2] = tested on: RANKL-induced resorption pits; experiment: Hydroxyapatite resorption assay; format: cell-based, mouse; settings: for bone resorption / RANKL-induced resorption pits: in words
Experimental: BMMs (1 × 10^5 cells/well) were cultured onto 6-well collagen-coated plates and stimulated with 100 ng/mL sRANKL and 10 ng/mL M-CSF for 3 days to generate early stage of osteoclasts began differentiation. Then early-stage osteoclasts were gently harvested using cell dissociation solution, and seeded into OsteoAssay Surface (hydroxyapatite-coated) 24-well plates. Early-stage osteoclasts were continue incubated in a medium containing sRANKL and M-CSF with or without treatment. After 48 h, wells were bleached to remove cells, followed by image acquisition for the measurement of resorbed areas using a Leica microscope. The percentage of surface resorbed was analyzed using ImageJ software.

C3H10T1/2 = C3H10T1/2 proliferation and osteoblastic mineralization; format: cell-based, mouse; settings: C3H10T1/2 or human primary osteoblasts, osteogenic differentiation medium
Experimental: Supplementary Fig.5. In Vitro Activity Evaluation and Signal Pathway Study of compound S3-15. a Western blot of PI3K and AKT phosphorylation in RAW264.7 cells treating with or without S315 and sRANKL at different point-in-time. b EC50 curve and representative OC microphotographs of mature osteoclasts apoptosis assay with S3-15. n=3 biological replicates for each concentration. EC50 values were calculated by GraphPad Prism 8 software. c EC50 curve and representative OC microphotographs of mature osteoclasts apoptosis assay with S3, S3-03 and S3-05. n=3 biological replicates for each concentration. EC50 values were calculated by GraphPad Prism […]
pits in dose-dependent manner (mouse BMMs). e Precursor osteoblasts C3H10T12 proliferation-promoting of S3, S3-05 and S3-15. f Osteoblastic mineralization after treatment with S3, S3-05 and S3-15. C3H10T12 cells were cultured in osteoblast induction differentiation medium with or without treatment for 14 days and determinate of calcium deposition in differentiated osteoblasts by Alizarin red staining. Error bars represent ± s.d. n=3. Statistical difference was determined by unpaired two-tailed Student’s t test. Significant difference p value is < 0.05. Scale […]
(1 picture or pasted object on this page, not shown here)

Row | SMILES | viability at 24 h, 0.08 μM [1] [%] | viability at 24 h, 0.28 μM [1] [%] | viability at 24 h, 0.92 μM [1] [%] | viability at 24 h, 3.03 μM [1] [%] | viability at 24 h, 10 μM [1] [%] | CC50 at 24 h [1] [µM] | cell viability relative to 0 μM (fig. S5e) (RAW264.7 cells; conc. 0.08 μM) | cell viability relative to 0 μM (fig. S5e) (RAW264.7 cells; conc. 0.28 μM) | cell viability relative to 0 μM (fig. S5e) (RAW264.7 cells; conc. 0.92 μM) | cell viability relative to 0 μM (fig. S5e) (RAW264.7 cells; conc. 3.03 μM) | cell viability relative to 0 μM (fig. S5e) (RAW264.7 cells; conc. 10 μM) | Kd (sRANKL) [µM] | bone resorption / RANKL-induced resorption pits [2] | cell proliferation and mineralization (C3H10T1/2) | resorption pits area quantification (fig. 6g) ([2]; S3-15 0.1 μM, vehicle 95, 90, 94) | resorption pits area quantification (fig. 6g) ([2]; S3-15 1 μM) | resorption pits area quantification (fig. 6g) ([2]; S3-15 10 μM)
1 | CCOC(=O)c1sc(NC(=O)/C(=N/Nc2ccccc2C(=O)O)C(C)=O)nc1C [S3, (E)-2-(2-(1-((5-(ethoxycarbonyl)-4-methylthiazol-2-yl)amino)-1,3-dioxobutan-2-ylidene) hydrazinyl) benzoic acid] | 105 | 107 | 111 | 121 | 120 | 44.6 | 118.628 and 117.348 | 120.489 and 117.697 | 125.722 and 127.234 | 128.164 and 131.886 | 130.258 and 129.909 | 34.8 | suppresses RANKL-induced resorption | increase cell proliferation and mineralization | – | – | –
2 | CCOC(=O)c1sc(NC(=O)/C(=N/Nc2ccc(O)cc2C(=O)O)C(C)=O)nc1C [S3-05] | 98.4 | 118 | 132 | 127 | 113 | 93.9 | 112.115 and 113.045 | 104.323 and 119.674 | 131.188 and 122 | 125.024 and 127.118 | 125.722 and 115.72 | 23.6 | suppresses RANKL-induced resorption | increase cell proliferation and mineralization | – | – | –
3 | CC(=O)/C(=N\Nc1ccccc1C(=O)O)C(=O)Nc1ccccn1 [S3-15] | 107 | – | – | – | 137 | 62.5 | 111.614 and 102.001 | 101.596 and 120.838 and 143.415 | 144.954 and 160.091 and 138.541 | 169.327 and 148.033 and 125.969 | 154.703 and 140.336 | 33.7 | attenuated bone resorption in a dose-dependent manner | increase cell proliferation and mineralization | 80 and 85 and 76 | 57 and 64 and 65 | 34 and 29 and 27
